Experimental data: the supplement of paper PMC6045584
± gives the standard deviation of the averaged measurements.

Key:
[1] = compound: CNC(=O)c1cc(Oc2ccc(NC(=O)Nc3ccc(Cl)c(C(F)(F)F)c3)cc2)ccn1 [SORAFENIB]; test: surviving fraction relative to DMSO-only wells; higher = less growth inhibition; settings: exposure time: 5 days
In short: (§1)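 Surviving fraction is CellTiter-Glo luminescence divided by the median of wells given DMSO only. For this, log-phase tumour cell lines went into 384-well plates at 250–500 cells per well and, 24 hours later, into five days of continuous inhibitor exposure at 0.5, 1, 5, 10, 50, 100, 500 and 1000 nM. Lines were screened three times and retained only if replicate Pearson r >0.7 and median Z' >0.3.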

[2] = compound: Cn1nnc2c(C(N)=O)ncn2c1=O [TEMOZOLOMIDE]; test: as above; settings: exposure time: 5 days
In short: as §1

Row | Test System | surviving fraction ([1]; 0.5 nM) | surviving fraction ([1]; 1 nM) | surviving fraction ([1]; 50 nM) | surviving fraction ([1]; 100 nM) | surviving fraction ([1]; 500 nM) | surviving fraction ([2]; 0.5 nM) | surviving fraction ([2]; 1 nM) | surviving fraction ([2]; 5 nM) | surviving fraction ([2]; 10 nM) | surviving fraction ([2]; 50 nM) | surviving fraction ([2]; 100 nM) | surviving fraction ([2]; 500 nM) | surviving fraction ([2]; 1000 nM) | surviving fraction ([1]; 5 nM) | surviving fraction ([1]; 10 nM) | surviving fraction ([1]; 1000 nM)
1 | SCC003 HEADNECK | 0.898 ± 0.11 | 1.05 ± 0.12 | 1.12 ± 0.18 | 1.11 ± 0.081 | 1.24 ± 0.097 | 1.05 ± 0.077 | 1.04 ± 0.059 | 1.08 ± 0.072 | 1.15 ± 0.073 | 1.06 ± 0.034 | 1.1 ± 0.071 | 1.07 ± 0.057 | 1.09 ± 0.036 | – | – | –
2 | SCC36 HEADNECK | – | 1.02 ± 0.064 | 1.18 ± 0.16 | 1.17 ± 0.056 | 1.2 ± 0.049 | 1.04 ± 0.065 | 1.08 ± 0.088 | 1.19 ± 0.11 | 1.14 ± 0.069 | 1.07 ± 0.056 | 1.08 ± 0.14 | 1.11 ± 0.1 | 1.05 ± 0.078 | 1.15 ± 0.11 | 1.18 ± 0.018 | 1.18 ± 0.065
3 | SCC47 HEADNECK | 1.04 ± 0.067 | 0.998 ± 0.071 | 1 ± 0.053 | 1.01 ± 0.068 | 0.907 ± 0.065 | 0.956 ± 0.035 | 1.06 ± 0.074 | 1.1 ± 0.035 | 1.12 ± 0.085 | 1.04 ± 0.11 | 1.22 ± 0.14 | 1.1 ± 0.06 | 1.14 ± 0.17 | 1.08 ± 0.029 | 0.974 ± 0.067 | 0.825 ± 0.028
4 | SCC90 HEADNECK | 1.16 ± 0.083 | 1.23 ± 0.13 | – | 0.797 ± 0.076 | 1.01 ± 0.083 | 0.973 ± 0.039 | 1.16 ± 0.11 | 1.05 ± 0.053 | 1.02 ± 0.062 | 1.08 ± 0.073 | 1.06 ± 0.2 | 1.1 ± 0.088 | 1.01 ± 0.057 | 1.37 ± 0.12 | 1.3 ± 0.097 | 1.12 ± 0.069
5 | SG27 HEADNECK | 1.04 ± 0.056 | 1.01 ± 0.059 | 1.03 ± 0.04 | 1.22 ± 0.1 | 1.27 ± 0.045 | 1.13 ± 0.058 | 1.1 ± 0.11 | 1.02 ± 0.054 | 1.09 ± 0.019 | 1.04 ± 0.061 | 1.16 ± 0.14 | 1.22 ± 0.048 | 1.21 ± 0.15 | 1.18 ± 0.041 | 1.13 ± 0.074 | 1.3 ± 0.051
6 | SG28 HEADNECK | 1.17 ± 0.13 | – | 1.21 ± 0.066 | 1.27 ± 0.1 | 1.44 ± 0.19 | 1.03 ± 0.044 | 1.18 ± 0.034 | 1.04 ± 0.013 | 1.1 ± 0.021 | 1.1 ± 0.087 | 1.05 ± 0.013 | 1.09 ± 0.14 | 1.09 ± 0.048 | 1.18 ± 0.1 | 1.22 ± 0.18 | 1.32 ± 0.14
7 | SG31 HEADNECK | 1.03 ± 0.11 | 1.1 ± 0.11 | 1.2 ± 0.31 | 1.07 ± 0.092 | 1.4 ± 0.22 | 0.991 ± 0.11 | 1.07 ± 0.18 | 1.01 ± 0.15 | 1.04 ± 0.013 | 0.922 ± 0.062 | 1.17 ± 0.52 | 1.17 ± 0.24 | 1.12 ± 0.12 | 1.09 ± 0.092 | 1.08 ± 0.15 | 1.22 ± 0.13
8 | SG32 HEADNECK | 1.2 ± 0.15 | 1.47 ± 0.68 | 1.76 ± 0.68 | 1.62 ± 0.26 | 1.53 ± 0.35 | 1.14 ± 0.019 | 1.44 ± 0.39 | 1.19 ± 0.12 | 1.37 ± 0.22 | 1.26 ± 0.071 | 1.13 ± 0.097 | 1.2 ± 0.18 | 1.67 ± 0.62 | 1.33 ± 0.044 | 1.42 ± 0.35 | 1.56 ± 0.36
9 | SG43 HEADNECK | 0.959 ± 0.085 | 1.19 ± 0.13 | 1.18 ± 0.14 | 1.4 ± 0.095 | 1.98 ± 0.15 | 1.11 ± 0.065 | 0.96 ± 0.1 | 0.768 ± 0.047 | 0.882 ± 0.087 | 0.742 ± 0.18 | 0.895 ± 0.24 | 0.895 ± 0.11 | 1.14 ± 0.46 | – | 0.97 ± 0.082 | 2.18 ± 0.21
10 | SIHA CERVIX | 1.04 ± 0.085 | 1.16 ± 0.11 | – | 1.15 ± 0.043 | 1.17 ± 0.16 | 0.992 ± 0.024 | 0.996 ± 0.072 | 0.99 ± 0.06 | 1.06 ± 0.076 | 1.02 ± 0.021 | 1.06 ± 0.039 | 0.968 ± 0.044 | 1.02 ± 0.028 | 1.089 ± 0.01 | 1.13 ± 0.077 | 1.17 ± 0.15
11 | SJSA1 BONE | 1.02 ± 0.012 | 0.969 ± 0.036 | 1.07 ± 0.041 | 1.03 ± 0.041 | 1 ± 0.11 | 0.368 ± 0.017 | 1.72 ± 0.054 | 1.64 ± 0.088 | 1.5 ± 0.13 | 1.69 ± 0.041 | 1.64 ± 0.077 | 1.66 ± 0.084 | 1.7 ± 0.11 | 0.985 ± 0.048 | – | 0.967 ± 0.026
12 | SKBR3 BREAST | 1.12 ± 0.15 | 1.07 ± 0.22 | 0.96 ± 0.16 | 0.95 ± 0.1 | 1.08 ± 0.23 | 1.1 ± 0.052 | 1.11 ± 0.058 | 1.06 ± 0.082 | 1.06 ± 0.069 | 0.983 ± 0.061 | 1.07 ± 0.13 | 1.13 ± 0.04 | 1.07 ± 0.055 | 0.978 ± 0.087 | 0.951 ± 0.16 | 1.1 ± 0.053
13 | SNU475 LIVER | 1.08 ± 0.036 | – | – | – | 1.17 ± 0.031 | 1.004 ± 0.0081 | 1.01 ± 0.025 | 1.01 ± 0.051 | 1.04 ± 0.036 | 1.01 ± 0.034 | 1.06 ± 0.047 | 1.05 ± 0.053 | 1.03 ± 0.022 | 1.04 ± 0.03 | 1.05 ± 0.032 | 1.07 ± 0.042
14 | SUM44 BREAST | 1.03 ± 0.035 | 0.99 ± 0.041 | 1.12 ± 0.035 | 1.11 ± 0.044 | – | 1.16 ± 0.26 | 1.19 ± 0.22 | 1.24 ± 0.23 | 1.33 ± 0.5 | 1.19 ± 0.21 | 1.32 ± 0.33 | 1.3 ± 0.28 | 1.3 ± 0.26 | 1.03 ± 0.051 | 1.04 ± 0.053 | 0.974 ± 0.026
15 | SUM149 BREAST | 1.18 ± 0.028 | 1.09 ± 0.048 | – | 1.17 ± 0.051 | – | 1.06 ± 0.11 | 1.1 ± 0.067 | 1.1 ± 0.029 | 1.1 ± 0.12 | 1.01 ± 0.056 | 1.16 ± 0.12 | 1.1 ± 0.096 | 1.03 ± 0.022 | – | – | 1.278 ± 0.0084
16 | SUM149.B1*.S BREAST | 1.1 ± 0.025 | 1.051 ± 0.004 | – | 1.202 ± 0.0063 | 0.807 ± 0.024 | 1 ± 0.026 | 1.05 ± 0.023 | 1.08 ± 0.062 | 1.11 ± 0.038 | 1.07 ± 0.067 | 1.13 ± 0.073 | 1.07 ± 0.023 | 1.15 ± 0.085 | 1.08 ± 0.05 | 1.05 ± 0.033 | 0.609 ± 0.04
17 | SUM159 BREAST | 0.909 ± 0.23 | 0.956 ± 0.18 | 0.997 ± 0.15 | – | 0.909 ± 0.28 | 1.01 ± 0.057 | 1.06 ± 0.035 | 1.039 ± 0.0092 | 1.07 ± 0.024 | 1.02 ± 0.021 | 1.05 ± 0.021 | 1.04 ± 0.029 | 1.06 ± 0.0095 | – | 0.936 ± 0.18 | 0.071 ± 0.043
18 | SYO1 SYNOVIAL | 0.9613 ± 0.0017 | 1.02 ± 0.023 | 0.968 ± 0.025 | 0.912 ± 0.033 | – | 0.971 ± 0.041 | 1.04 ± 0.064 | 0.965 ± 0.0099 | 1.01 ± 0.048 | 0.986 ± 0.059 | 1.01 ± 0.048 | 0.99733 ± 0.00067 | 1.03 ± 0.016 | 1.02 ± 0.045 | 0.981 ± 0.017 | 0.679 ± 0.022
19 | T47D BREAST | 1.083 ± 0.01 | 1.02 ± 0.028 | 1.14 ± 0.029 | 1.13 ± 0.018 | 1.149 ± 0.0045 | 0.982 ± 0.011 | 1.057 ± 0.0064 | 1.04 ± 0.034 | 1.04 ± 0.055 | 1.06 ± 0.053 | 1.1 ± 0.018 | 1.08 ± 0.032 | 1.09 ± 0.025 | 1.07 ± 0.053 | 1.02 ± 0.046 | 1.12 ± 0.039
20 | U2OS BONE | 1.01 ± 0.019 | 1.03 ± 0.027 | 1.08 ± 0.035 | – | 1.08 ± 0.016 | 0.988 ± 0.017 | 0.988 ± 0.034 | 1.04 ± 0.022 | 1.02 ± 0.045 | 1.06 ± 0.029 | 1.06 ± 0.023 | 1.02 ± 0.028 | 1.01 ± 0.023 | 1.06 ± 0.05 | 1.05 ± 0.029 | 1 ± 0.067
21 | VCAP PROSTATE | 1.13 ± 0.17 | 1.17 ± 0.11 | 1.12 ± 0.21 | – | 1.13 ± 0.16 | 0.913 ± 0.1 | 1.09 ± 0.089 | 1.04 ± 0.13 | 1.04 ± 0.082 | 0.967 ± 0.051 | 1.1 ± 0.09 | 0.991 ± 0.039 | 1.08 ± 0.093 | 1.19 ± 0.12 | 1.08 ± 0.053 | 1.02 ± 0.062
22 | VP229 BREAST | 0.934 ± 0.11 | 0.939 ± 0.05 | 1.21 ± 0.088 | 1.12 ± 0.17 | 1.31 ± 0.13 | 1.18 ± 0.11 | 1.18 ± 0.15 | 1.07 ± 0.17 | 1.23 ± 0.06 | 1.12 ± 0.073 | 1.26 ± 0.21 | 1.15 ± 0.15 | 1.15 ± 0.16 | 1.06 ± 0.11 | 1 ± 0.11 | 1.3 ± 0.028
